# Assay results: ChEMBL document CHEMBL5346865, “Male contraceptive development: A medicinal chemistry perspective” (Eur J Med Chem, 2022)
# pIC50: −log10 of the molar value.
# How the values were obtained:
# [1] = organism: Mus musculus; assay: Contraceptive effect in mouse model of contraception; type: functional
# [2] = Inhibition of sperm motility in human Spermatozoa assessed as remaining progressive sperm motility relative to control; type: functional
# [3] = Inhibition of sperm motility in human Spermatozoa incubated for 1 to 2 hrs by computer assisted sperm analysis; type: functional, cell-based
# [4] = Half life in cynomolgus monkey at 1 mg/kg, iv administered as single infusion dose; type: ADME, organism-based, Macaca fascicularis; conditions: in vivo
smiles,measurement,setting,value
Cc1ccc(C2=CC(C)(C)Oc3ccc(-c4ccc(-c5ccc(C(=O)[O-])cc5)[nH]4)cc32)cc1.[Na+],Activity,[1],>99%
COC(=O)NNc1nc(Nc2ccc(NC(C)=O)c(O)c2)nc(SCC(=O)O)n1,Activity,[2],<20%
same,pIC50,[3],3.70
same,half-life,[4],< 12 min
